In US11566007B2, “Ras inhibitors” (Revolution Medicines, Inc., priority 2019, dated 2023):
Like-named read-outs stand apart in the source and are kept apart here.

What was measured:
NRAS Q61K = NRAS Q61K (Homo sapiens (Human), UniProt P01111+P62937, Q61K); assay: Ras-Raf (BRAF RBD) disruption / FRET / MOA assay, NRAS Q61K; type: biochemical; settings: NRAS Q61K; Ras-Raf disruption/FRET/MOA assay; read-out: IC50* NRAS Q61K FRET data
Procedure, shortened: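 Compounds (30 μM top final, 10-point 3-fold dilutions) incubated 3 h at 25° C with nucleotide-loaded Ras, cyclophilin A and BRAF RBD. Detection with 10 nM anti-His Eu-W1024 and 50 nM anti-GST allophycocyanin over another 1.5 h. Lowered TR-FRET ratio relative to DMSO wells gives IC50.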

KRAS G12D = KRAS G12D (Homo sapiens (Human), UniProt P01116+P62937, G12D); assay: Ras-Raf (BRAF RBD) disruption / FRET / MOA assay, KRAS G12D; type: biochemical; settings: class symbols
Chain of KRAS G12D (P01116-2 other isoform, or with tags, fused parts or gaps G12D): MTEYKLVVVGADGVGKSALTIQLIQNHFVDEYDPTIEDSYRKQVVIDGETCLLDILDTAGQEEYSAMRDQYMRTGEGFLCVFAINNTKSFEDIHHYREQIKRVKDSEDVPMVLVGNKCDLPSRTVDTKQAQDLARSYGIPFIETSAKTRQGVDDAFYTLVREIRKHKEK
Chain of KRAS G12D (P62937 whole entry): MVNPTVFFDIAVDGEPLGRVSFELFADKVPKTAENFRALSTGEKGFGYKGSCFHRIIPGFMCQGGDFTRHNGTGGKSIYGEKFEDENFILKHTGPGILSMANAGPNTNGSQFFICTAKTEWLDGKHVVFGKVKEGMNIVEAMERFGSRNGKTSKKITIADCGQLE
Procedure, shortened: (§1)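 Compound-driven ternary complex of nucleotide-loaded Ras with cyclophilin A, disrupting BRAF RBD binding. 10-point 3-fold dilution from 30 μM final, 3 h at 25° C, then anti-His Eu-W1024 (10 nM) and anti-GST allophycocyanin (50 nM) for 1.5 h. IC50 from TR-FRET ratio decrease versus DMSO.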

NCI-H358 (K-Ras G12C) = assay: CellTiter-Glo cell viability assay, NCI-H358; type: cell-based, human; settings: Homo sapiens, NCI-H358, 120 h, class symbols
Procedure, shortened: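 Four-parameter logistic fits were applied to luminescence data normalized against DMSO-treated wells. Readings were taken on day 5 following direct compound addition, after roughly 30 minutes at room temperature.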

KRAS G12V = KRAS G12V (Homo sapiens (Human), UniProt P01116+P62937, G12V); assay: Ras-Raf (BRAF RBD) disruption / FRET / MOA assay, KRAS G12V; type: biochemical
Chain of KRAS G12V (P01116-2 other isoform, or with tags, fused parts or gaps G12V): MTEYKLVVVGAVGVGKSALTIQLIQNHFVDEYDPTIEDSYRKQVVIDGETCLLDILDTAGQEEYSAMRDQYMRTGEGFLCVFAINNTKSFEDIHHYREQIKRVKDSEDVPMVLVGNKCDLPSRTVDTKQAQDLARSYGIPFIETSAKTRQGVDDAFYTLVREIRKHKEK
Chain of KRAS G12V (P62937 whole entry): as the sequence (P62937 whole entry) above
Procedure, shortened: as §1

KRAS G13D = KRAS G13D (Homo sapiens (Human), UniProt P01116+P62937, G13D); assay: Ras-Raf (BRAF RBD) disruption / FRET / MOA assay, KRAS G13D; type: biochemical
Chain of KRAS G13D (P01116-2 other isoform, or with tags, fused parts or gaps G13D): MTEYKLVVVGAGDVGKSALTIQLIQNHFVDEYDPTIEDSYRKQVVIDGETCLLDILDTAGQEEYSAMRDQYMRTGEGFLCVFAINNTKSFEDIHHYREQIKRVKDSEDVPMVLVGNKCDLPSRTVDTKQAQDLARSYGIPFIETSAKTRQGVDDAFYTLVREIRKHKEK
Chain of KRAS G13D (P62937 whole entry): as the sequence (P62937 whole entry) above
Procedure, shortened: as §1

KRAS G12S = KRAS G12S (Homo sapiens (Human), UniProt P01116+P62937, G12S); assay: Ras-Raf (BRAF RBD) disruption / FRET / MOA assay, KRAS G12S; type: biochemical; settings: class symbols
Chain of KRAS G12S (P01116-2 other isoform, or with tags, fused parts or gaps G12S): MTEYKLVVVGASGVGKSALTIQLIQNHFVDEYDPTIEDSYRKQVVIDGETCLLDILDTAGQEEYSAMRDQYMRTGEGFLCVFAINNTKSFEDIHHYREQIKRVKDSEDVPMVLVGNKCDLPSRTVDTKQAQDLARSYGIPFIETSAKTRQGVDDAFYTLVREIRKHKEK
Chain of KRAS G12S (P62937 whole entry): as the sequence (P62937 whole entry) above
Procedure, shortened: as §1

[1] = Ras-Raf disruption/FRET/MOA assay, read-out: KRAS G12D FRET data IC50
[2] = NCI-H358, 5-day treatment, read-out: Additional H358 Cell Viability assay data (K-Ras G12C, IC50)
[3] = read-out: IC50* KRAS G12V FRET data
[4] = read-out: IC50* KRAS G13D FRET data
[5] = Ras-Raf disruption/FRET/MOA assay, read-out: KRAS G12S FRET data IC50
[6] = read-out: Additional H358 Cell Viability assay data (K-Ras G12C, IC50, uM), NCI-H358, 5-day treatment

Chain of NRAS Q61K (P01111 whole entry Q61K): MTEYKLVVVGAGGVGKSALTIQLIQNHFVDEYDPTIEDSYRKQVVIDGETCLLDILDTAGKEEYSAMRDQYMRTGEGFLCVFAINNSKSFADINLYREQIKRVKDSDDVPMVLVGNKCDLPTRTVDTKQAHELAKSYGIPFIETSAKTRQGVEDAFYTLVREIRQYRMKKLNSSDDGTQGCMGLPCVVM
Chain of NRAS Q61K (P62937 whole entry): as the sequence (P62937 whole entry) above

SMILES | IC50 (NRAS Q61K) [nM] | IC50 (KRAS G12D; [1]) [nM] | IC50 (NCI-H358 (K-Ras G12C); [2]) [µM] | IC50 (KRAS G12V; [3]) [nM] | IC50 (KRAS G13D; [4]) [nM] | IC50 (KRAS G12S; [5]) [nM] | IC50 (KRAS G12D; KRAS G12D FRET data IC50, Ras-Raf disruption/FRET/MOA assay) [nM] | IC50 (NCI-H358 (K-Ras G12C); [6]) [µM] | IC50 (KRAS G12V; IC50* KRAS G12V FRET data) [nM] | IC50 (KRAS G13D; IC50* KRAS G13D FRET data) [nM] | IC50 (KRAS G12S; KRAS G12S FRET data IC50, Ras-Raf disruption/FRET/MOA assay) [nM]
C=CC(=O)N1C[C@@H]2CN(C(=O)N(C)[C@H](C(=O)N[C@H]3Cc4nc(cs4)-c4ccc5c(c4)c(c(-c4cccnc4[C@H](C)OC)n5CC)CC(C)(C)COC(=O)[C@@H]4CCCN(N4)C3=O)C(C)C)C[C@@H]2C1 (atropisomer, axis not shown) [Example A389] | 10 to 100 | 100 to 1000 | < 0.01 | 10 to 100 | 100 to 1000 | 10 to 100 |  |  |  |  | 
C=CC(=O)N(C)[C@@H]1CCN(C(=O)N(C)[C@H](C(=O)N[C@H]2Cc3nc(cs3)-c3ccc4c(c3)c(c(-c3cccnc3[C@H](C)OC)n4CC)CC(C)(C)COC(=O)[C@@H]3CCCN(N3)C2=O)C(C)C)C1 (atropisomer, axis not shown) [Example A416] | 10 to 100 | 1000 to 10000 | < 0.01 | 100 to 1000 | 100 to 1000 | 100 to 1000 |  |  |  |  | 
C=CC(=O)N1CC[C@H](C(=O)N(C)[C@H](C(=O)N[C@H]2Cc3coc(n3)-c3ccc4c(c3)c(c(-c3cccnc3[C@H](C)OC)n4CC)CC(C)(C)COC(=O)[C@@H]3CCCN(N3)C2=O)C(C)C)C1 (atropisomer, axis not shown) [Example A468] | 1000 to 10000 | > 10000 | 0.01 to 0.1 | 1000 to 10000 | 1000 to 10000 | 1000 to 10000 |  |  |  |  | 
C=CC(=O)N1CCN(C(=O)N(C)[C@H](C(=O)N[C@H]2Cc3nc(cs3)-c3ccc4c(c3)c(c(-c3cccnc3[C@H](C)OC)n4CC)CC(C)(C)COC(=O)[C@@H]3CCCN(N3)C2=O)C(C)C)CC1 (atropisomer, axis not shown) [Example A491] | 10 to 100 | 100 to 1000 | < 0.01 | 10 to 100 | 100 to 1000 | 10 to 100 |  |  |  |  | 
C=CC(=O)N1CC[C@H](C(=O)N(C)[C@H](C(=O)N[C@H]2Cc3nc(cs3)-c3ccc4c(c3)c(c(-c3cccnc3[C@H](C)OC)n4CC(F)(F)F)CC(C)(C)COC(=O)[C@@H]3CCCN(N3)C2=O)C(C)C)C1 (atropisomer, axis not shown) [Example A502] | 100 to 1000 | 1000 to 10000 | < 0.01 | 1000 to 10000 | 1000 to 10000 | 100 to 1000 |  |  |  |  | 
C=CC(=O)N1CC[C@H](C(=O)N(C)[C@H](C(=O)N[C@H]2Cc3cc(CF)cc(c3)-c3ccc4c(c3)c(c(-c3cccnc3[C@H](C)OC)n4CC)CC(C)(C)COC(=O)[C@@H]3CCCN(N3)C2=O)C(C)C)C1 (atropisomer, axis not shown) [Example A503] | 1000 to 10000 | 1000 to 10000 | < 0.01 | 1000 to 10000 | 1000 to 10000 | 1000 to 10000 |  |  |  |  | 
C=CC(=O)N1CC[C@H](C(=O)N(C)[C@H](C(=O)N[C@H]2Cc3cccc(c3)-c3ccc4c(c3)c(c(-c3cc(CN(C)C)cnc3[C@H](C)OC)n4CC)CC(C)(C)COC(=O)[C@@H]3CCCN(N3)C2=O)C(C)C)C1 (atropisomer, axis not shown) [Example A522] | 1000 to 10000 | > 10000 | < 0.01 | 1000 to 10000 | 1000 to 10000 | 1000 to 10000 |  |  |  |  | 
C=CC(=O)N1CCO[C@H]2CN(C(=O)N(C)[C@H](C(=O)N[C@H]3Cc4cc(C(F)F)cc(n4)-c4ccc5c(c4)c(c(-c4cccnc4[C@H](C)OC)n5CC(F)(F)F)CC(C)(C)COC(=O)[C@@H]4CCCN(N4)C3=O)C(C)C)C[C@H]21 (atropisomer, axis not shown) [Example A540] | 1000 to 10000 |  |  |  |  |  | > 10000 | < 0.01 | 1000 to 10000 | 1000 to 10000 | 1000 to 10000
C=CC(=O)N1CCO[C@@H]2CN(C(=O)N(C)[C@H](C(=O)N[C@H]3Cc4nc(cs4)-c4ccc5c(c4)c(c(-c4cccnc4[C@H](C)OC)n5CC)CC(C)(C)COC(=O)[C@@H]4CCCN(N4)C3=O)C(C)C)C[C@H]21 (atropisomer, axis not shown) [Example A543] | 10 to 100 | 1000 to 10000 | < 0.01 | 100 to 1000 | 100 to 1000 | 100 to 1000 |  |  |  |  | 
C=CC(=O)N1CCO[C@H]2CN(C(=O)N(C)[C@H](C(=O)N[C@H]3Cc4nc(cs4)-c4ccc5c(c4)c(c(-c4cccnc4[C@H](C)OC)n5CC)CC(C)(C)COC(=O)[C@@H]4CCCN(N4)C3=O)C(C)C)C[C@@H]21 (atropisomer, axis not shown) [Example A544] | 10 to 100 | 1000 to 10000 | < 0.01 | 100 to 1000 | 100 to 1000 | 100 to 1000 |  |  |  |  | 
C=CC(=O)N1CCOC2(CCN(C(=O)N(C)[C@H](C(=O)N[C@H]3Cc4nsc(n4)-c4ccc5c(c4)c(c(-c4cccnc4[C@H](C)OC)n5CC)CC(C)(C)COC(=O)[C@@H]4CCCN(N4)C3=O)C(C)C)CC2)C1 (atropisomer, axis not shown) [Example A545] | 10 to 100 | 1000 to 10000 | 0.01 to 0.1 | 100 to 1000 | 100 to 1000 | 100 to 1000 |  |  |  |  | 
C=CC(=O)N1CC[C@@H]2[C@H]1CN2C(=O)N(C)[C@H](C(=O)N[C@H]1Cc2nc(cs2)-c2ccc3c(c2)c(c(-c2cccnc2[C@H](C)OC)n3CC)CC(C)(C)COC(=O)[C@@H]2CCCN(N2)C1=O)C(C)C (atropisomer, axis not shown) [Example A546] | 100 to 1000 | 1000 to 10000 | < 0.01 | 100 to 1000 | 1000 to 10000 | 1000 to 10000 |  |  |  |  | 
CCn1c(-c2cccnc2[C@H](C)OC)c2c3cc(ccc31)-c1cccc(c1)C[C@H](NC(=O)[C@H](C(C)C)N1CC[C@@]3(CCN(C(=O)C#C[C@H]4COCCN4C)C3)C1=O)C(=O)N1CCC[C@H](N1)C(=O)OCC(C)(C)C2 (atropisomer, axis not shown) [Example A551] | 1000 to 10000 | 1000 to 10000 |  | 1000 to 10000 | 1000 to 10000 | 1000 to 10000 |  | < 0.01 |  |  | 
CCn1c(-c2cccnc2[C@H](C)OC)c2c3cc(ccc31)-c1cccc(c1)C[C@H](NC(=O)[C@H](C(C)C)N1CO[C@@]3(CCN(C(=O)/C=C/CN(C)C)C3)C1=O)C(=O)N1CCC[C@H](N1)C(=O)OCC(C)(C)C2 (atropisomer, axis not shown) [Example A558] | 1000 to 10000 | 1000 to 10000 | 0.01 to 0.1 | 1000 to 10000 | 100 to 1000 | 100 to 1000 |  |  |  |  | 
CO[C@@H](COC1CN(C(=O)C#CC(C)(C)N(C)C)C1)C(=O)N[C@H]1Cc2coc(n2)-c2ccc3c(c2)c(c(-c2cccnc2[C@H](C)OC)n3CC(F)(F)F)CC(C)(C)COC(=O)[C@@H]2CCCN(N2)C1=O (atropisomer, axis not shown) [Example A579] | > 10000 | > 10000 | < 0.01 | 1000 to 10000 | > 10000 | 1000 to 10000 |  |  |  |  | 
C=CC(=O)N1CCO[C@H]2CCN(C(=O)N(C)[C@H](C(=O)N[C@H]3Cc4nc(cs4)-c4ccc5c(c4)c(c(-c4cccnc4[C@H](C)OC)n5CC)CC(C)(C)COC(=O)[C@@H]4CCCN(N4)C3=O)C(C)C)C[C@H]21 (atropisomer, axis not shown) [Example A580] | 10 to 100 | 1000 to 10000 | 0.01 to 0.1 | 100 to 1000 | 100 to 1000 | 100 to 1000 |  |  |  |  | 
C=CC(=O)NCCN1CCN(C(=O)N(C)[C@H](C(=O)N[C@H]2Cc3nc(cs3)-c3ccc4c(c3)c(c(-c3cccnc3[C@H](C)OC)n4CC)CC(C)(C)COC(=O)[C@@H]3CCCN(N3)C2=O)C(C)C)CC1 (atropisomer, axis not shown) [Example A582] | 10 to 100 | 1000 to 10000 | 0.01 to 0.1 | 100 to 1000 | 100 to 1000 | 100 to 1000 |  |  |  |  | 
CCn1c(-c2cccnc2[C@H](C)OC)c2c3cc(ccc31)-c1cccc(c1)C[C@H](NC(=O)[C@@H](CO[C@@H]1CCN(C(=O)C#CC(C)(C)N(C)C)C1)C(C)C)C(=O)N1CCC[C@H](N1)C(=O)OCC(C)(C)C2 (atropisomer, axis not shown) [Example A584] | > 10000 | > 10000 | < 0.01 | 1000 to 10000 | > 10000 | > 10000 |  |  |  |  | 
CCn1c(-c2cccnc2[C@H](C)OC)c2c3cc(ccc31)-c1cc(CF)cc(c1)C[C@H](NC(=O)[C@@H](COC1CN(C(=O)C#CC(C)(C)N(C)C)C1)C(C)C)C(=O)N1CCC[C@H](N1)C(=O)OCC(C)(C)C2 (atropisomer, axis not shown) [Example A587] | > 10000 | > 10000 | < 0.01 | > 10000 | > 10000 | > 10000 |  |  |  |  | 
